Assays:
Gastric acid secretion = Gastric acid secretion in the pylorus ligated rat (antisecretory activity); assay type: in vivo, rat (male Sprague-Dawley); details: 4 hours
Experimental: Gastric acid secretion in the pylorus ligated rat
Male Sprague-Dawley rats weighing 150.-+.5 g fasting since 48 hours were used. Pylorus ligation was performed for 4 hours. The products under exam were administered by the oral route immediately after the ligation.

Carbachole salivation = Carbachole salivation in the rat; assay type: in vivo, rat (male Sprague-Dawley); details: 62.5 mg/kg p.o., one hour before carbachole 1 mg/kg i.p.
Experimental: Carbachole salivation in the rat
The method cited by R. Turner: "Parasympatholytic Agents" in R. Turner "Screening Methods in Pharmacology" pag. 137. Academic Press. New York and London 1965, with slight changes, was used.
Male Sprague-Dawley rats, average weight 150.-+.5 g, fasting since 24 hours, were used.
The salivation was induced by the intraperitoneal administration of 1 mg/kg of carbachole.
The products under exam were administered orally one hour before the cholinergic stimulus.

in vivo = details: mouse, po, Swiss mice, 14 days observation
Experimental: The acute toxicity was determined by administering by oral route the substances under exam to Swiss mice; average weight 20.-+.2 g. The observation period was 14 days. 10 Animals were used for each tested dose.

muscarinic receptor = assay: Interaction with muscarinic receptor (displacement of 3H-QNB bound to rat cerebral cortex receptors); assay type: binding; parameters: unit not given here
[1] = concentration 10^-5 (unit not given)
[2] = concentration 10^-6 (unit not given)
[3] = concentration 10^-7 (unit not given)

SMILES | % Antisecretory activity (Gastric acid secretion; 6.25 mg/kg p.o.) [%] | % Antisecretory activity (Gastric acid secretion; 12.5 mg/kg p.o.) [%] | % Antisecretory activity (Gastric acid secretion; 25 mg/kg p.o.) [%] | Carbachol salivation - % protection (Carbachole salivation) [%] | LD50 at 336 h (in vivo) [mg/kg] | Interaction with muscarinic receptor (muscarinic receptor; [1]) | Interaction with muscarinic receptor (muscarinic receptor; [2]) | Interaction with muscarinic receptor (muscarinic receptor; [3])
CC(C(=O)N1c2ccccc2C(=O)Nc2cccnc21)N1CCCCC1 (stereo not shown) [Compound 1, 11-[2-(Piperidin-1-yl)propionyl]-5,11-dihydro-6H-pyrido-[2,3-b][1,4]benzodiazepin-6-one] | 10.3 | 36.3 | 71.3 | 0 | > 500 | 46.6 | 3.96 | 0
CC1CCCCN1CC(=O)N1c2ccccc2NC(=O)c2cccnc21 (stereo not shown) [Compound 5, 11-[2-(2-Methylpiperidin-1-yl)acetyl]-6,11-dihydro-5H-pyrido[2,3-b][1,5]benzodiazepin-5-one] | 18.7 | 58.4 | 66.7 | 100 | < 500 | 96.9 | 71.7 | 14.6
CN1CCN(CC(=O)N2c3ccccc3C(=O)Nc3cccnc32)CC1 [P, Pirenzepine, reference compound] | 7.9 | 46.0 | 71.5 | 10 | – | – | – | –
CN1CCN(CC(=O)N2c3ccccc3C(=S)Nc3cccnc32)CC1 [Compound 6, 11-[2-(4-Methylpiperazin-1-yl)acetyl]-5,11-dihydro-6H-pyrido[2,3-b][1,4]benzodiazepin-6-thione] | 7.2 | 25.8 | 51.4 | 10 | < 500 | 85.5 | 43.9 | 7.5
O=C1Nc2cccnc2N(C(=O)CN2CCCCCC2)c2ccccc21 [Compound 2, 11-[2-(Hexamethylenimino)acetyl]-5,11-dihydro-6H-pyrido[2,3-b][1,4]benzodiazepin-6-one] | 11.6 | 33.7 | 55.2 | 100 | > 500 | 93.3 | 49.7 | 12.8
CC1(C)CCCN(CC(=O)N2c3ccccc3C(=O)Nc3cccnc32)C1 [Compound 10] | 12.4 | 24.7 | 41.5 | 0 | > 500 | 30.2 | 0.2 | 0
O=C1Nc2cccnc2N(C(=O)CCN2CCCCCC2)c2ccccc21 [Compound 4, 11-[3-(Hexamethylenimino)propionyl]-5,11-dihydro-6H-pyrido[2,3-b][1,4]benzodiazepin-6-one] | 21.5 | 50.2 | 64.1 | 50 | < 500 | 94.4 | 54.3 | 3.0

Reference: patent US4556653A, “Pyrido[1,5]benzodiazepinone derivatives and pharmacological activities thereof” (Dompe' Farmaceutica S.p.A., priority 1983, dated 1985)
